Assay results as given in BindingDB's records for doi:10.1038/sj.bjp.0702658 (Universit&Agrove, 1999).

Target: T1, Melatonin receptor type 1B (Homo sapiens, UniProt P49286)
T1 sequence (P49286 whole entry): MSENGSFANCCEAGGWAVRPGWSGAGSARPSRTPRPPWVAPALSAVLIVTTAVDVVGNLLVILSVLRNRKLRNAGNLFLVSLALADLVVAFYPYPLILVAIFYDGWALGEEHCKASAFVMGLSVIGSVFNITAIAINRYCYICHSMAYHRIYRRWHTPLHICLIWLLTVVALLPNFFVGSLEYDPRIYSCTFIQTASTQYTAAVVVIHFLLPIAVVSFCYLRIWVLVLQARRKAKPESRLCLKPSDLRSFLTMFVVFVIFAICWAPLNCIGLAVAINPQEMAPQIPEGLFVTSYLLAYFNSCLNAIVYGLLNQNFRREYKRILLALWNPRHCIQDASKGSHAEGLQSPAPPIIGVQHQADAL

Row | Compound | Ki [nM]
1 | CC(=O)NCCc1c(Cc2ccccc2)[nH]c2ccccc12 [CAS_117946-91-5] | 11.2
2 | CC(=O)NCCc1c[nH]c2ccccc12 [N-Acetyltryptamine] | 64.6

Continued, values first:

Row | Ki [nM] | Compound
3 | 339 | CC(=O)NCCc1c[nH]c2ccc(O)cc12 [N-Acetyltryptamine,5-Hydroxy]
4 | 85.1 | O=C(NCCc1c(-c2ccccc2)[nH]c2ccccc12)C1CCC1 [N-CBCPT]
5 | 0.03 | COc1ccc2[nH]c(-c3ccccc3)c(CCNC(C)=O)c2c1 [Melatonin,2-Phenyl]
